Patent US20210332320A1, “ANTIMICROBIC SUSCEPTIBILITY TESTING USING MACHINE LEARNING” (Beckman Coulter, Inc., priority 2018, published 2021)

Experiments:
Format in all cases: cell-based
[1] = tested on: P. fluorescens; test: Actual MIC (reference read after full growth period)
Method: In AST testing, a plurality of test wells are filled with inoculum and increasing concentrations of a number of different antimicrobial agents, for example antibiotics. The different antimicrobial agents may be diluted in a growth medium or liquid medium to concentrations that include those of clinical interest. After incubation, the turbidity will be increased or unchanged in test wells where growth has not been inhibited by the antimicrobics in those test wells. The MIC of each antimicrobial agent is measured by lack of growth with respect to each concentration of antimicrobial agent. It follows that the lowest concentration of antimicrobial agent displaying a lack of growth is the MIC. As set forth above, neural networks can be used to model growth patterns of a bacterial isolate over time at various drug concentrations. As long as the bacteria grows in the well with no drug, then a neural network can be created to use the count and area of the growth well and at the various drug concentrations to make an early prediction of the MIC. […]

[2] = tested on: P. fluorescens; test: MIC prediction by neural network from digital microscopy of AST test wells
Text: FIG. 8 provides an illustration of how data that can be used in an optimized AST method 101 can be captured from a test well. Test well 20 is embodied by a “384” style test well, having a clear viewing bottom. The volume of inoculum in test well 20 may be set to 20 microliters to reduce the amount of materials such as bulk diluents required by AST method 101 and/or minimize light artifacts and provide sampling of a consistent number of microbes from the 1:250 dilution of the 0.5 MacFarland inoculum. Decreasing the volume of inoculum in test well 20 generally increases the light artifacts. In some instances, capturing a single vertical plane 103 at 20× objective whereby AST camera 35 is set at 0.33 microns/pixel may be sufficient for sampling the inoculum and ensuring that each individual microbe is recognizable. However, these parameters are configurable and may change as desired by the user or the underlying needs of the system. Capturing three focal sites spaced about 5 microns apart within single vertical plane 103 may also provide a sufficient number of microbes in the sample to count for use in optimized AST method 101. These three focal sites are labeled site 105, site 107, and site 109 in FIG. 8. In an exemplary version of optimized AST method 101, each focal site is approximately 700×700 microns within single vertical plane 103, rather than capturing three sites in three different vertical planes. AST camera 35, optics system 9, and computer 49 are configured to capture an image of each focal site in consecutive time periods, manipulate each of these images, and thereafter use the data derived from these manipulated images to make a MIC determination. In some embodiments, to use a neural network such as illustrated in FIG. 24 to make a MIC prediction, a test well containing some concentration of an antimicrobial could be inoculated with a microorganism. Data could then be gathered by taking measurements in a manner similar to that described above in the context of the decision tree and neural network classifiers of FIGS. 20-23B and 25. These measurements, along with the identity and concentration of the antimicrobial in the test well could then be provided as inputs to the neural network's input nodes. The values provided on the network's output nodes could then be treated as indications of the likelihood that the concentrations corresponding to the output nodes were the MIC for the microorganism added to the test well. For example, when using a network which had been trained to provide a likelihood that a first concentration is the MIC on a first output node, a likelihood that a second concentration is the MIC on a second output node, and a likelihood that a third concentration is the MIC on a third output node, the concentration corresponding to the output node with the highest value (which might not be the same as the concentration of the antimicrobial in the test well from which the data was gathered) could be treated as the MIC. In some embodiments, rather than using values of the output nodes of a network such as shown in FIG. 24 as directly indicating the MIC, values from such output nodes may be used as inputs to another function that would provide a (potentially more reliable) MIC value. For example, in some embodiments, separate sets of measurements could be gathered from each of a plurality of test wells having different concentrations of the same antimicrobial, and those sets of measurements could each be provided as input to a neural network such as illustrated in FIG. 24. Each of those neural networks would then provide a prediction of the most likely MIC, and those predictions could be provided as input to another function (e.g., a statistical function, such as a mode or median identification function) that would provide a prediction that would be treated as the true MIC for the sample.

[3] = tested on: E. coli bacteria; test: Digital microscopy of E. coli bacteria exposed to antibiotic dilution (elongation); details: FIG. 17 versus unexposed FIG. 18
Text: Data extraction step 117 may be configured to derive information regarding the ratio between the total count of microbes and the total area occupied by all of the microbes in the image. This information may be useful in determining whether the microbes are undergoing elongation over time. Elongation is a precursor to death and indicates the concentration of the antimicrobic dilution is negatively affecting the microbes. More specifically, elongation may occur when microbes such as bacteria encounter an effective amount of antibiotic drugs. For example, FIGS. 17 and 18 depict microbes embodied by E. coli bacteria. FIG. 17 depicts the E. coli after being exposed to a dilution of the antibiotic ampicillin, while FIG. 18 depicts the E. coli free from any ampicillin exposure. […] This elongation is a precursor to the death of the bacteria and illustrates that the concentration of ampicillin is sufficient to neutralize the bacteria. FIG. 18 illustrates normal growth. It follows that the ratio between the total area occupied by all of the bacteria and the bacteria count will increase over time to represent each bacterium elongating. For example, if a particular image sample includes 100 bacteria and each bacterium measures approximately 4 pixels each, the area occupied by the 100 bacteria within the image is 400 pixels. In this image sample, the ratio of bacteria area to bacteria count is 4.0. […]

actual MIC [1]	Structure (SMILES)	final predicted MIC ([2]; median of the predictions of the 11 drug concentration wells)	Predicted MIC ([2]; prediction from test well with dilution 0.06 μg/ml) [µg/mL]	Predicted MIC ([2]; prediction from test well with dilution 0.12 μg/ml) [µg/mL]	Predicted MIC ([2]; prediction from test well with dilution 0.25 μg/ml) [µg/mL]	Predicted MIC ([2]; prediction from test well with dilution 0.5 μg/ml) [µg/mL]	Predicted MIC ([2]; prediction from test well with dilution 1 μg/ml) [µg/mL]	Predicted MIC ([2]; prediction from test well with dilution 2 μg/ml) [µg/mL]	Predicted MIC ([2]; prediction from test well with dilution 4 μg/ml) [µg/mL]	Predicted MIC ([2]; prediction from test well with dilution 8 μg/ml) [µg/mL]	Predicted MIC ([2]; prediction from test well with dilution 16 μg/ml) [µg/mL]	Predicted MIC ([2]; prediction from test well with dilution 32 μg/ml) [µg/mL]	Predicted MIC ([2]; prediction from test well with dilution 64 μg/ml) [µg/mL]	growth morphology after exposure to a dilution of the antibiotic [3]
example was 2. μg/ml	CC(C)(O/N=C(\C(=O)N[C@@H]1C(=O)N2C(C(=O)[O-])=C(C[n+]3ccccc3)CS[C@H]12)c1csc(N)n1)C(=O)O [Caz, Ceftazidime]	which in this case is 2. μg/ml	2	2	2	2	2	2	32	2	2	2	2	–
–	CC1(C)S[C@@H]2[C@H](NC(=O)[C@H](N)c3ccccc3)C(=O)N2[C@H]1C(=O)O [ampicillin]	–	–	–	–	–	–	–	–	–	–	–	–	abnormal growth in the form of elongation
